{
  "source": "patent US20040039042A1",
  "about": "“Method of transdermal drug delivery” (priority 2002, published 2004)",
  "key": {"[1]": {"conditions": "cited from earlier work"}, "[2]": {"assay": "Powdered drug mixed with Ocean® and rubbed into the skin over arthritic joints of patients", "format": "in vivo, human", "conditions": "for side effects normally encountered when taking the drug: patients unable to continue the drugs because of GI toxicity, transdermal application in Ocean®", "text": "The present invention is a method for delivering drugs transdermally, especially insoluble drugs. The powdered form of a drug, such as that contained in the capsules of Vioxx® and Celebrex®, was mixed with Ocean® to form a mixture. The mixture was then rubbed into the skin at the needed location, for example, an arthritic joint, by volunteer subjects suffering from arthritis in different joints. The Vioxx® or Celebrex® suspension in Ocean® then penetrated the outer layer of the skin, traveled through the stratum corneum, dermis, and hypodermis, and entered the target tissue. […] Therefore, the present invention provides a method of delivery for NSAIDs, such as Vioxx® and Celebrex®, that can inhibit COX-2 at the inflammation site, without ever entering the GI tract, relieving the patient of any GI toxicity that may be caused by the drug.\nIn summary, the method of this patent for drug delivery has been tried by a few patients with severe arthritis. These patients were unable to continue using either Vioxx® or Celebrex® because of the severe GI toxicity those drugs caused. The patients opened the capsules of the drugs, mixed the powdered drug with Ocean®, and applied the solution to the skin of the arthritic area."}, "[3]": {"assay": "Application of Carafate® to root canal wounds or dry sockets in dental patients", "format": "in vivo, human", "conditions": "applied to root canal wounds or dry sockets", "text": "Wounds in the mouth are especially prone to infection because of the dark, moist environment, the availability of energy sources from the food that is eaten, and the large numbers of microbes in the mouth. After a root canal or removal of a tooth, a patient is especially prone to infection since the open wound is an idea location for bacteria to settle, and because such a wound is hard to clean."}},
  "data": [
    {"compound": "Cc1ccc(-c2cc(C(F)(F)F)nn2-c2ccc(S(N)(=O)=O)cc2)cc1", "note": "[Celebrex®, 4-[5-(4-methylphenyl)-3-(triflouromethyl)-1 H-pyrazol-1-yl] benzenesulfonamide]", "values": [
      {"measurement": "solubility in aqueous media", "setting": "[1]; aqueous media", "result": "low solubility"},
      {"measurement": "side effects normally encountered when taking the drug", "setting": "[2]", "result": "without the side effects"}
    ]},
    {"compound": "CS(=O)(=O)c1ccc(C2=C(c3ccccc3)C(=O)OC2)cc1", "note": "[Vioxx®, 4-[4-(methyl-sulfonyl)phenyl]-3-phenyl-2(5H)-furanone]", "values": [
      {"measurement": "solubility in acetone", "setting": "[1]; acetone", "result": "sparingly soluble"},
      {"measurement": "solubility in ethanol", "setting": "[1]; ethanol", "result": "very slightly soluble"},
      {"measurement": "solubility in isopropyl acetate", "setting": "[1]; isopropyl acetate", "result": "slightly soluble"},
      {"measurement": "solubility in methanol", "setting": "[1]; methanol", "result": "slightly soluble"},
      {"measurement": "solubility in octanol", "setting": "[1]; octanol", "result": "practically insoluble"},
      {"measurement": "solubility in water", "setting": "[1]; water", "result": "insoluble"},
      {"measurement": "side effects normally encountered when taking the drug", "setting": "[2]", "result": "without the side effects"},
      {"measurement": "relief from arthritis", "setting": "[2]; patients with severe arthritis, powdered drug from capsules mixed with Ocean®, applied to skin of the arthritic area", "result": "relief from their arthritis"},
      {"measurement": "time after application until pain and symptoms are reduced", "setting": "[2]; suspension in Ocean® rubbed into the skin closest to the affected arthritic joint, volunteer subjects", "result": "Within minutes"}
    ]},
    {"compound": "α-D-glucopyranoside, β-D-frucofuranosyl-, octakis-(hydrogen sulfate), aluminum complex [Carafate®]", "values": [
      {"measurement": "infection of the wound area", "setting": "[3]; a number of dental patients", "result": "inhibits infection"},
      {"measurement": "healing process", "setting": "[3]; dental patients", "result": "hastens the healing process"},
      {"measurement": "pain and swelling in wounds", "setting": "[3]; dental patients", "result": "reduce pain and swelling"}
    ]}
  ]
}
